Measurements as given in paper PMC5678437, “A new antagonist for CCR4 attenuates allergic lung inflammation in a mouse model of asthma” (Scientific Reports, 2017).
Read-outs that look alike come from different tables or passages of the source.

Columns and labels:
[1] = tested on: OVA-induced asthmatic mice; assay: BALF total cell and cell differential counts in OVA-induced asthmatic mice; assay type: in vivo, BALB/c mice
Description: (§1) Male BALB/c 6 week old mice were purchased from the Experimental Animal Center of Zhejiang University. All mice were raised in a specific pathogen-free animal facility. All animal experiments were carried out according to the guidelines for the care and use of laboratory animals and were approved by the ethics committee of Zhejiang University and Peking University, China.
(§2) Mice were sensitized and challenged with chicken egg OVA (sigma-Aldrich, St Louis, MO, USA) as described in details previously. Briefly, after sensitized by intraperitoneal injection of 100 μl (80 μg) OVA in 100 μl alum (Pierce, Rockford, IL, USA) on days 0 and 14, mice were exposure to 1% OVA aerosols for 40 min on days 24–26. Control mice were injected intraperitoneally with saline and exposed to saline aerosols.
(§3) Compound 8a was dissolved in saline with DMSO (0.5%). Half an hour before each OVA challenge, the groups of mice treated with various doses of compound 8a (0.2, 1, 5 mg) inhaled aerosolized compound 8a for 45 min on days 24–26. Compound 8a aerosols were produced by using a Plexiglas chamber and ultrasonic nebulizer. While the budesonide (BUD) group were administered with 5 mg budesonide, and the vehicle group were treated with compound-dissolved vehicle. The Saline was treated as the control.
Twenty-four hours after the last exposure, collection of BALF and cell count was performed as previously described. Briefly, lavage was performed by instilling 0.4 ml PBS into lungs and with drawn to collect the cells three times. Total BALF cells were counted. After be centrifuged, the remaining cells was spun onto glass slides, and stained with Wright–Giemsa stain. Differential counts were evaluated by counting 400 total cells.

IL-4 = IL-4 in lung homogenate by ELISA in OVA-induced asthmatic mice; assay type: in vivo, BALB/c mice; settings: 5 mg inhaled aerosol; after OVA challenge
Description: as §1, §2
(§4) Compound 8a was dissolved in saline with DMSO (0.5%). Half an hour before each OVA challenge, the groups of mice treated with various doses of compound 8a (0.2, 1, 5 mg) inhaled aerosolized compound 8a for 45 min on days 24–26. […]
Twenty-four hours after the last challenge, lungs were removed from control or asthmatic mice, and they were cut into pieces and homogenized in 500 μl PBS, centrifuged (2000 rpm, 10 min) and the supernatant collected. The concentration of IL-4 in lungs were determined by ELISA kit (Sensitivity: 2 pg/ml, R&D Systems, Minneap-olis, MN, USA) following the manufacturer’s protocol.

[2] = tested on: OVA-induced asthmatic mice; assay: Airway mucus production (PAS staining) in OVA-induced asthmatic mice; assay type: in vivo, BALB/c mice; settings: compound 8a 0.2, 1, 5 mg; budesonide 5 mg; vs vehicle treated group
Description: as §1, §2
as §4, with “24–26. Compound 8a aerosols were produced by using a Plexiglas chamber and ultrasonic nebulizer.” for “24–26.”
(§5) After sacrificed, the lungs were fixed in formalin overnight. […] Inflammation was scored according to published guidelines. And PAS-stained goblet cells in airway epithelium were quantified as described previously.

[3] = tested on: OVA-induced asthmatic mice; assay: Lung histology (H&E) inflammation score in OVA-induced asthmatic mice; assay type: in vivo, BALB/c mice; settings: 5 mg inhaled aerosol; vs OVA mice treated with vehicle
Description: as §1, §2
as §4, with “24–26. Compound 8a aerosols were produced by using a Plexiglas chamber and ultrasonic nebulizer.” for “24–26.”
as §5

[4] = tested on: OVA-induced asthmatic mice; assay: Airway hyperresponsiveness to aerosolized methacholine in OVA-induced asthmatic mice; assay type: in vivo, BALB/c mice; settings: 5 mg inhaled aerosol, days 24-26; 24 h after final OVA challenge
Description: as §1, §2, §3
Twenty-four hours after the last challenge, mice were anesthetized and tracheotomized with a cannula, then ventilated at a fixed breathing rate. Once being stabilized, mice were challenged via the airways with saline or increasing concentrations of Mch (1, 2, 4, 8, 16 mg/ml) by nebulization. Airway resistance was measured by FinePointe Series RC Sites (Buxco Research System). Changes in airway resistance were calculated for each Mch concentration.

CCR4 = molecular target: T1, CCR4 (Homo sapiens, UniProt P51679); assay: Radio ligand competition binding assay on CCR4 cell membrane extract; settings: HEK293 CCR4 cell membrane extract, 4 °C, 24 h
T1 construct: expressed in transfected cells; cell membrane extract
T1 sequence (P51679 1-360): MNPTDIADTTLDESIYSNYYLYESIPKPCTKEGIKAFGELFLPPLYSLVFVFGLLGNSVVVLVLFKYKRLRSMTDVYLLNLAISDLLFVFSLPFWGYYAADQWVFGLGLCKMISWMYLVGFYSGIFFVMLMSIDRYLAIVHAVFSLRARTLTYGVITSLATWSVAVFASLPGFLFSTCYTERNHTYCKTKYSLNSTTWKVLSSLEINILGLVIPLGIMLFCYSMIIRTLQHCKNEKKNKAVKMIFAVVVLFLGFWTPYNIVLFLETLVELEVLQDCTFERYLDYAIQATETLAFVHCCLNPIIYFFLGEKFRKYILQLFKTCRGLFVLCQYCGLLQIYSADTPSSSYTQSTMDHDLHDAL
Description: A HEK293 cell line stably expressing CCR4-enhanced green fluorescent protein was established. CCL22, CCL17 and C27 were labeled with [^125I]. For competition binding assays, equivalent quantities of cell membrane extract and [^125I]-CCL22, [^125I]-CCL17 and [^125I]-C27 were incubated with varying quantities of unlabeled compound 8a, compound 6b and compound 22. All reactions were incubated at 4 °C for 24 h. After the binding step, 25% polyethylene glycol (6000–8000) and 0.5% human g-globulin were added, and the mixture was incubated at room temperature for 15 min. Binding complexes were obtained by centrifuging the mixture at 3500 rpm for 20 min at 4 °C, and radioactivity was evaluated. Results were corrected for “blank” background radiation, defined as the radioactivity precipitated by polyethylene glycol–g-globulin from the same amount of radioactive ligand in binding buffer in the absence of cells.

[5] = 5 mg inhaled aerosol, compared with vehicle treated group
[6] = compound 8a 0.2, 1, 5 mg, budesonide 5 mg, inhaled aerosol

SMILES | absolute number of eosinophils in BALF [1, 5] | absolute number of lymphocytes in BALF [1, 5] | number of macrophages in BALF [1, 6] | number of neutrophils in BALF [1, 6] | expression of IL-4 in lungs (ELISA) (IL-4) | airway mucus production (PAS-stained cells) [2] | peribronchial and perivascular inflammation (H&E histology) [3] | AHR to methacholine compared with asthmatic mice treated with vehicle [4] | IC50 (CCR4; [125I]-C27, read-out: IC50, competitive binding with C27 to CCR4) | IC50 (CCR4; [125I]-CCL17, read-out: IC50, competitive binding with CCL17 to CCR4) | IC50 (CCR4; [125I]-CCL22, read-out: IC50, competitive binding with CCL22 to CCR4)
CCCC1O[C@@H]2C[C@H]3[C@@H]4CCC5=CC(=O)C=C[C@]5(C)[C@H]4[C@@H](O)C[C@]3(C)[C@]2(C(=O)CO)O1 (some centres unmarked) [budesonide, reference compound] | significantly decreased | significantly decreased | neither compound 8a nor budesonide affect | neither compound 8a nor budesonide affect | notably decreased | no effect | significantly attenuated | significantly lower |  |  | 
O=C([C@@H]1CSCCN1)N1CCN(c2nc(NCc3ccc(Cl)cc3Cl)c3cccnc3n2)CC1 [compound 6b, reference compound] |  |  |  |  |  |  |  |  | 489 nM | 104 nM | 360 nM
